Test system: broadleaf signalgrass
Test: Foliar spray herbicide effect test in greenhouse pots (Test Example 1)
Type: in vivo, Brachiaria platyphylla
Conditions: evaluated 5 days after treatment, level 0-10
Protocol: Evaluation of phytotoxicity against a crop was shown by “no” when almost no phytotoxicity was observed, “low” when a low level phytotoxicity was observed, “medium” when a medium level phytotoxicity was observed and “high” when a high level phytotoxicity was observed.
A plastic pot of 11 cm in diameter and 8 cm in depth was filled with field soil. A seed of broadleaf signalgrass was sown and grown in a greenhouse for 28 days.
An emulsion of Compound A-1 was prepared by sufficiently mixing […] of Compound A-1, 6 parts of Sorpol 3005× (surfactant, produced by Toho Chemical) and 89 parts of xylene.
Each of • single use of an emulsion of Compound A-1, • single use of a formulation of Flumioxazin (commercial name: Pledge, produced by Sumitomo Chemical, containing 50% of Flumioxazin), • single use of a formulation of Sulfentrazone (commercial name: Authority, produced by Du Pont, containing 75% of Sulfentrazone), • a mixed composition of an emulsion of Compound A-1 and a formulation of Flumioxazin, and • a mixed composition of an emulsion of Compound A-1 and a solution of Sulfentrazone • were diluted with water containing 1% Agri-dex (produced by Helena). […]
After the treatment, they were raised in a greenhouse for 5 days and the effect against weeds was evaluated. In addition, after 14 days of the treatment, the phytotoxicity to soybean was evaluated.

## Cc1nn(-c2cc(NS(C)(=O)=O)c(Cl)cc2Cl)c(=O)n1C(F)F [Sulfentrazone, N-[2,4-dichloro-5-[4-(difluoromethyl)-4,5-dihydro-3-methyl-5-oxo-1H-1,2,4-triazol-1-yl]phenyl]methanesulfonamide]
200 g/ha active ingredient
  Herbicide Effect Broad signalgrass: 1
1200 g/ha active ingredient
  Herbicide Effect Broad signalgrass: 3

Reference: patent US7407914B2, “Herbicide composition” (Sumitomo Chemical Company, Limited, priority 2001, dated 2008)
